These results are taken from PubChem BioAssay (NCI).

Values joined by “and” are separate entries in the source; they are usually repeats but may differ in a detail not shown here. Equal values may be shown once.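 Method: 48-hour compound exposure of cells in 96-well plates, five concentrations, linear interpolation of endpoints. GI50 = concentration required for 50% inhibition of growth. TGI is the concentration that stops growth completely.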

Holding throughout (test): NCI tumour cell line growth inhibition, 48 h
For experiment [1], the system named is 786-0 renal.
Experiment [2] relates to A549 NSCLC.
Experiment [3] deals with HCC-2998 colon.
Experiment [4] has as its system HL-60(TB) leukemia.
In experiment [5] the test system is K-562 leukemia.
Experiment [6] deals with LOX IMVI melanoma.
Experiment [7] deals with M14 melanoma.
Experiment [8] deals with OVCAR-3 ovarian.
The subject of experiment [9] is SNB-75 CNS.
For experiment [10], the system named is UACC-62 melanoma.

On to `Nc1nc(N)c2cc(CNc3ccc(Cl)c(Cl)c3)ccc2n1`, for which the GI50 is 0.391 µM in experiment [1]; 0.0631 µM in [2]; 0.64 µM in experiment [3]; 0.357 µM in [4]; 0.0588 µM in experiment [5]; 0.146 µM in experiment [6]. For the same molecule, the GI50 in experiment [7] is 0.13 µM; in experiment [8], 1.1 µM; in [9], 1.14 µM; in [10], 0.468 µM. Further, the TGI in experiment [1] was found to be 1.73 µM; in [2], 1.34 µM; in experiment [3], 2 µM; in experiment [4] it was 2 µM; in experiment [5] it was 1.45 µM; in experiment [6] it was 1.55 µM. The TGI is 1.7 µM in experiment [7], 2.29 µM in experiment [8], 2.36 µM in [9] and 1.86 µM in experiment [10].

In the case of `Cc1cccc(CN(C)c2ccc(CO)c(Cl)c2)c1`, the GI50 in experiment [1] is 13.2 µM; in [2], 4.58 µM; in experiment [3] it was 15.9 µM; in experiment [4], 23.8 µM; in [5] it was 8.76 µM; in [6], 18 µM. The GI50 in experiment [7] was 20.6 µM; in experiment [8], 4.2 µM; in experiment [9], 18.8 µM; in experiment [10], 0.301 µM. For the same molecule, the TGI in [1] is 34.1 µM; in [2], 34.4 µM; in [3] it was 52.9 µM; in [4], 82.6 µM; in [5] it was greater than 100 µM; in experiment [6] it was 40.4 µM. Also, the TGI in experiment [7] was greater than 65.9 µM; in [8], 17 µM; in experiment [9] it was 80 µM; in experiment [10], 2.96 µM.

For the molecule `O=C1NC(=NCC(CO)c2ccccc2)S/C1=C\c1ccc2ncccc2c1` (stereo not given), the GI50 in [1] was greater than 25 µM; in experiment [2], 16.2 µM; in experiment [3], 24.6 µM; in experiment [4], 8.34 µM; in experiment [5], 10.6 µM; in [6], 17.4 µM. For the same molecule, the GI50 in experiment [7] is greater than 25 µM; in experiment [8] it was 13.8 µM; in experiment [9], greater than 7 µM; in [10] it was greater than 25 µM. For the same molecule, the TGI in experiment [1], in experiment [2], in experiment [3], in [4], in [5] and in [6] was greater than 25 µM each time. The TGI in [7], in [8], in [9] and in experiment [10] was greater than 25 µM in each case.

As for `CC1=C(N2CC2)C(=O)C(CO)=C(N2CC2)C1=O`, the GI50 was 0.00201 µM in [1]; 0.111 µM in experiment [3]; 0.000498 µM in experiment [4]; 0.00307 µM in [6]; 0.0162 µM in experiment [7]; 0.0377 µM in experiment [8]. Moreover, the TGI in experiment [1] is 0.0199 µM and 0.133 µM; in experiment [3], 0.511 µM and 0.29 µM; in [4], 0.0104 µM; in experiment [5], 1.07 µM; in [6], 0.0226 µM and 0.187 µM; in [7], 0.119 µM and 0.0522 µM. For the same molecule, the TGI in experiment [8] is 0.557 µM and 0.0564 µM; in [9], 0.38 µM; in experiment [10], 0.146 µM and 0.23 µM.

As to `Cc1cc(C)nc(NS(=O)(=O)c2ccc(Nc3c4ccccc4nc4c(C(=O)NCCN(C)C)ccc(Cl)c34)cc2)n1`, the TGI stood at 14.7 µM in experiment [1]; 4.19 µM in [2]; 26.7 µM in experiment [3]; 7.6 µM in [4]; 11.7 µM in experiment [5]; 2.25 µM in [6]. For the same molecule, the TGI was 10.6 µM in [7], 23 µM in [8], 11 µM in [9] and 3.59 µM in experiment [10].

For `C=C1CC[C@@H]2C(C)(C)[C@@H](O)CC[C@@]2(C)[C@@H]1COc1ccc2ccc(=O)oc2c1`, the GI50 in experiment [1] was 14.8 µM; in [2], 8.46 µM; in experiment [3], 15.2 µM; in experiment [5], 6.43 µM; in experiment [6] it was 13.8 µM; in experiment [7], 12.5 µM. Moreover, the results for the GI50 in experiment [8], in experiment [9] and in [10] were 13 µM, 10.9 µM and 10.2 µM, respectively. For the same molecule, the TGI is 30.6 µM in [1]; 66.8 µM in [2]; 31.1 µM in experiment [3]; 45.6 µM in experiment [4]; greater than 100 µM in experiment [5]; 27.7 µM in experiment [6]. In addition, the TGI in [7] was found to be 27.2 µM; in experiment [8], 29.1 µM; in [9], 32.1 µM; in experiment [10] it was 23.7 µM.

Take `Cn1cc(-c2csc(-c3c[nH]c4ncccc34)n2)c2cc(Br)cnc21`: the GI50 in experiment [1] was 9.65 µM; in [3] it was greater than 100 µM; in experiment [4], greater than 100 µM; in experiment [5], 8.76 µM; in experiment [6], 4.26 µM; in [7], 4.06 µM. The GI50 in [8] is 2.91 µM; in [9], 2.18 µM; in experiment [10] it was 3.47 µM. Further, the TGI in experiment [1], in experiment [3], in experiment [4], in experiment [5], in experiment [6] and in [7] was greater than 100 µM throughout. In addition, the TGI in experiment [8] is greater than 100 µM; in [9], 7.35 µM; in experiment [10], greater than 100 µM.

In the case of `COC(=O)[C@]12CC[C@@H](C)[C@H](C)[C@@H]1C1=CC[C@@H]3[C@@]4(C)C[C@@H](OC(=O)c5ccco5)[C@H](O)[C@@](C)(CO)[C@@H]4[C@H](O)C[C@@]3(C)[C@]1(C)CC2`, the GI50 was 2.1 µM in [1]; 2.44 µM in experiment [2]; 1.95 µM in [3]; 2.08 µM in experiment [4]; 2.35 µM in experiment [5]; 1.68 µM in [6]. The figures for the GI50 in experiment [7], in experiment [8] and in [9] were 2.26 µM, 2.19 µM and 2.38 µM, respectively. Also, the TGI in experiment [1] was determined as 4.46 µM; in experiment [2], 7.05 µM; in experiment [3], 3.73 µM; in experiment [4] it was 5.46 µM; in [5], 5.42 µM; in experiment [6], 3.1 µM. For the same molecule, the TGI in [7] was 4.74 µM; in experiment [8], 4.73 µM; in experiment [9], 11.7 µM.
